Data published in US8338454B2, “Nitrile derivatives and their pharmaceutical use and compositions” (Cellceutix Corporation, priority 2009, dated 2012).
Read-outs that look alike come from different tables or passages of the source.

Legend:
HCT-116 = assay: Cytotoxicity of Kevetrin, cell viability (MTT); type: cell-based; settings: Homo sapiens; HCT-116 colon carcinoma; continuous exposure for three doubling times; read-out: IC50 Concentration
Text: (§1) The results are set forth below.

SKOV-3 = assay: Cytotoxicity of Kevetrin, cell viability (MTT); type: cell-based; settings: Homo sapiens, SK-OV-3; SKOV-3 ovarian carcinoma; continuous exposure for three doubling times; read-out: IC50 Concentration
Text: as §1

MCF-7 = assay: Cytotoxicity of Kevetrin, cell viability (MTT); type: cell-based; settings: Homo sapiens, MCF7; MCF-7 breast carcinoma; continuous exposure for three doubling times; read-out: IC50 Concentration
Text: as §1

SW-480 = assay: Cytotoxicity of Kevetrin, cell viability (MTT); type: cell-based; settings: Homo sapiens, SW480; SW-480 colon carcinoma; continuous exposure for three doubling times; read-out: IC50 Concentration
Text: as §1

DU-145 = assay: Cytotoxicity of Kevetrin, cell viability (MTT); type: cell-based; settings: Homo sapiens; DU-145 prostate carcinoma; continuous exposure for three doubling times; read-out: IC50 Concentration
Text: as §1

HT-29 = assay: Cytotoxicity of Kevetrin, cell viability (MTT); type: cell-based; settings: Homo sapiens; HT-29 colon carcinoma; continuous exposure for three doubling times; read-out: IC50 Concentration
Text: as §1

SCC 15 = assay: Cytotoxicity of Kevetrin, cell viability (MTT); type: cell-based; settings: Homo sapiens; SCC 15 squamous cell carcinoma; continuous exposure for three doubling times; read-out: IC50 Concentration
Text: as §1

Colo 205 = assay: Cytotoxicity of Kevetrin, cell viability (MTT); type: cell-based; settings: Homo sapiens; Colo 205 colon carcinoma; continuous exposure for three doubling times; read-out: IC50 Concentration
Text: as §1

SCC-61 = assay: Cytotoxicity of Kevetrin, cell viability (MTT); type: cell-based; settings: Homo sapiens; SCC-61 squamous cell carcinoma; continuous exposure for three doubling times; read-out: IC50 Concentration
Text: as §1

LnCap = assay: Cytotoxicity of Kevetrin, cell viability (MTT); type: cell-based; settings: Homo sapiens; LnCap prostate carcinoma; continuous exposure for three doubling times; read-out: IC50 Concentration
Text: as §1

leukemias = assay: Activity spectra, MTT assay; type: cell-based, human
Protocol: (§2) The indicated values are calculated as follows: log(IC50 individual cell line−IC50 average). Negative values indicate that the cell line is more sensitive than the average, whereas positive values indicate that the cell line is more resistant than the average. […] The activity of Kevetrin was more marked than that of cisplatin toward lung, head and neck, breast, ovary, and colon cell lines.

[1] = system: head and neck cancer cell lines; assay: Activity spectra, MTT assay; type: cell-based, human; settings: three head and neck cancer cell lines
Protocol: as §2

malignant glioma cells = assay: Viability of human tumor cell lines; type: cell-based
Text: as §1

[2] = system: HCT-15 human colon carcinoma with P-glycoprotein mediated resistance; assay: Xenograft efficacy in nude mice; type: in vivo
Protocol: HCT-15 tumor bearing nude mice were treated with either 200 mg/kg Kevetrin IV on Days 7, 9, 11 or 22 mg/kg Taxol on Days 7, 9, 11 and 13 post tumor.

[3] = Weight loss due to Kevetrin in tumor bearing mice; type: in vivo
Protocol: Animal weights of mice following treatment with either 100 or 200 mg/kg Kevetrin IV on Day 0 are shown.
(§3) The mice were observed daily for any adverse affects. Mice body weights were taken prior to treatment and every other day during and post treatment. If an animal became unwell, any treatment of that animal was suspended. If there was no recovery, the animal was sacrificed. […] Mice tumor size measurements were taken prior to treatment and every other day during and post treatment. The same scientist was responsible for taking the tumor measurements throughout the study.
(§4) The dosing procedure began the day the mice were randomized and grouped. The dose was administered, as discussed in the following paragraph, on days 7, 9 and 11 following tumor implantation. Each dose was administered via the tail vein.
When Kevetrin was administered intravenously (IV) to animals bearing tumors, the weight loss due to the administration of the compound was within acceptable limits. […] Both these concentrations may be used to establish the efficacy of Kevetrin.

HT-29 colon carcinoma = assay: Xenograft efficacy in nude mice; type: in vivo
Protocol: HT-29 tumor bearing nude mice were treated with either 200 mg/kg Kevetrin IV or 5-FU on Days 7, 9, and 11.
(§5) The cells were cultured in 10% FBS RPMI medium. The cells were obtained at passage 5 for further expansion for this efficacy study. Nude mice (Nu/Nu), both male (20 to 24 g) and female (19 to 22 g), were purchased at 6 to 8 weeks old from Charles River Laboratories. These mice were naïve at the beginning of the study and were identified by ear punching. The mice were left for five days to become acclimated to their new environment. Mice were implanted with human tumor cells in a 50:50 mix of RPMI:Matrigel subcutaneously in the right flank of each mouse. Dosing began when tumors reached an average volume of 100 mm^3.
as §3
(§6) Nude mice were implanted with 5×10^6 tumor cells in a 50:50 mix of RPMI:Matrigel subcutaneously in the right flank of each mouse. […]

[4] = system: MDA-MB-231 human breast carcinoma; assay: Xenograft efficacy in nude mice; type: in vivo
Protocol: MDA-MB-231 human breast carcinoma bearing mice were treated with 200 mg/kg Kevetrin IV days 7, 9, and 11 compared to 22 mg/kg Taxol IV Days 7, 9, 11 and 13.
as §5, §3, §6

[5] = system: NCI-H1975 multi-drug resistant human lung carcinoma; assay: Xenograft efficacy in nude mice; type: in vivo
Protocol: as §5, §3
Nude mice were implanted with 5×10^6 tumor cells in a 50:50 mix of RPMI:Matrigel subcutaneously in the right flank of each mouse. Dosing began when tumors reached an average volume of 100 mm^3, usually reached by day 14 post implant, and was carried out for 8 days. A necropsy was performed 41 days after treatment ended.
as §4
Efficacy of Kevetrin 200 mg/kg Days 7, 9, & 11 Against Taxol at 22 mg/kg on Days 7, 9, 11 & 13 in NCI-H1975 Multi-Drug Resistant Human Lung Carcinoma.
The animals were implanted subcutaneously with another multi-drug resistant human lung carcinoma and the compounds were injected IV as per the schedule. […] The tumor growth was delayed about 9 days for Taxol treated animals and about 24 days more than the untreated controls. The results are depicted in FIG. 9.

[6] = system: A549 multi-drug resistant human lung carcinoma; assay: Xenograft efficacy in nude mice; type: in vivo
Protocol: Nude mice were implanted with 5×10^6 tumor cells in a 50:50 mix of RPMI:Matrigel subcutaneously in the right flank of each mouse. Dosing began when tumors reached an average volume of 100 mm^3, usually reached by day 14 post implant, and was carried out for 8 days. […]

[7] = system: PC-3 human prostate cancer; assay: Xenograft efficacy in nude mice; type: in vivo
Protocol: PC-3 tumor bearing nude mice were treated with either 200 mg/kg Kevetrin IV on Days 7, 9, 11 or 10 mg/kg cisplatin on Day 7.
as §5, §3, §6

[8] = system: DU-145, HCT-116, or HT-29 carcinoma cells; assay: Time dependence of Kevetrin cytotoxicity, MTT assay; type: cell-based, human; settings: exposure 5 minutes to 120 hours; DU-145, HCT-116, HT-29
Protocol: Human carcinoma cells were exposed to different concentrations of Kevetrin for 5, 10, 20, 30, or 45 minutes or 1, 2, 6, 24, or 120 hours. Cellular viability expressed as IC50 was plotted verses time of Kevetrin exposure as measured using the MTT assay.
To determine the influence of exposure time on the cytotoxic effects of Kevetrin, DU-145, HCT-116, or HT-29 carcinoma cells were exposed to different concentrations of Kevetrin for 5, 10, 20, 30, or 45 minutes or 1, 2, 6, 24, or 120 hours. […] The time dependence was particularly dramatic for exposure times […]. In contrast, extending the drug exposure time beyond 24 hours had no influence on the cytotoxicity.

[9] = system: all tumor cell lines tested; assay: Activity spectra, MTT assay; type: cell-based, human; settings: read-out: average IC50 for all cell lines tested
Protocol: The indicated values are calculated as follows: log(IC50 individual cell line−IC50 average). Negative values indicate that the cell line is more sensitive than the average, whereas positive values indicate that the cell line is more resistant than the average.
as §2

[10] = 200 mg/kg Kevetrin IV days 7, 9, 11
[11] = Taxol 22 mg/kg IV days 7, 9, 11, 13

Q: Which IC50 (HCT-116) does the source give for Cl.N#CCCCSC(=N)N [Kevetrin, S-(3-cyanopropyl)isothiourea hydrochloride] here?
A: Its IC50 is 21 µg/mL.

Q: What about the IC50 (SKOV-3) of the same compound?
A: The IC50 was 58 µg/mL.

Q: And the IC50 (MCF-7)?
A: The IC50 was 68 µg/mL.

Q: And the IC50 (SW-480)?
A: The IC50 was 62 µg/mL.

Q: What about the IC50 (DU-145) of the same compound?
A: Its IC50 is 64 µg/mL.

Q: What about the IC50 (HT-29) of the same compound?
A: The IC50 was 29 µg/mL.

Q: What about the IC50 (SCC 15) of the same compound?
A: Its IC50 is 12 µg/mL.

Q: And the IC50 (Colo 205)?
A: Its IC50 is 6 µg/mL.

Q: And the IC50 (SCC-61)?
A: Its IC50 is 64 µg/mL.

Q: And the IC50 (LnCap)?
A: The IC50 was 52 µg/mL.

Q: What about the activity toward leukemias (leukemias) of the same compound?
A: Its activity toward leukemias is “comparatively limited activity”.

Q: What about the “activity toward head and neck cancer cell lines” value [1] of the same compound?
A: Its value is “showed activity toward all of the cell lines”.

Q: And the IC50 (malignant glioma cells)?
A: Its IC50 is about 0.03 µg/mL.

Q: And the “tumor growth delay more than the Taxol treated and the untreated control” value [2, 10]?
A: Its value is 15 days.

Q: What about the “weight loss of the body weight” value ([3]; 100 mg/kg intravenously on days 7, 9, and 11, tumor bearing mice) of the same compound?
A: The value was 6.8%.

Q: What about the “weight loss of the body weight” value ([3]; 200 mg/kg intravenously on days 7, 9, and 11, tumor bearing mice) of the same compound?
A: Its value is 9.3%.

Q: And the “tumor growth delay more than the untreated control” value (HT-29 colon carcinoma; [10])?
A: Its value is 33 days.

Q: What about the “tumor growth delay more than the 5-FU treated animals” value (HT-29 colon carcinoma; 200 mg/kg Kevetrin IV days 7, 9, 11 vs 5-FU) of the same compound?
A: The value was 10 days.

Q: And the “tumor growth delay more than the untreated control” value [4, 10]?
A: The value was 32 days.

Q: What about the “tumor growth delay more than the Taxol treated animals” value ([4]; 200 mg/kg Kevetrin IV days 7, 9, 11 vs 22 mg/kg Taxol IV days 7, 9, 11, 13) of the same compound?
A: Its value is 12 days.

Q: What about the “tumor growth delay more than the untreated controls” value [5, 10] of the same compound?
A: Its value is “about 24 days”.

Q: And the “tumor growth delay more than the untreated controls” value [6, 10]?
A: Its value is “about 26 days”.

Q: And the “tumor growth delay more than the untreated control” value [7, 10]?
A: Its value is 34 days.

Q: What about the “tumor growth delay more than the Cisplatin treated animals” value ([7]; 200 mg/kg Kevetrin IV days 7, 9, 11 vs 10 mg/kg Cisplatin IP day 7) of the same compound?
A: Its value is 8 days.

Q: And the “time dependence of cytotoxicity” value [8]?
A: Its value is “Clear time-dependent cytotoxic effects”.

Q: What about the IC50 ([9]; Homo sapiens) of the same compound?
A: Its IC50 is 0.49 µM.

Q: Which “activity toward head and neck cancer cell lines” value [1] does the source give for N.N.[Cl][Pt][Cl] [cisplatin, reference compound] here?
A: Its value is “active toward one of the three cell lines”.

Q: And the IC50 ([9]; MTT assay, continuous exposure for three doubling times)?
A: Its IC50 is 2.1 µM.

Q: For CC(=O)O[C@H]1C(=O)[C@@]2(C)[C@H]([C@H](OC(=O)c3ccccc3)[C@]3(O)C[C@H](OC(=O)[C@H](O)[C@@H](NC(=O)c4ccccc4)c4ccccc4)C(C)=C1C3(C)C)[C@]1(OC(C)=O)CO[C@@H]1C[C@@H]2O [Taxol, reference compound], which “effect on the cancer (in words)” value [2, 11] is on record?
A: Its value is “little effect”.

Q: What about the “effect on the cancer (in words)” value [5, 11] of the same compound?
A: Its value is “limited effect”.

Q: What about the tumor growth delay [5, 11] of the same compound?
A: Its tumor growth delay is “about 9 days”.

Q: And the “effect on the cancer (in words)” value [6, 11]?
A: The value was “no effect”.
